Results from publication PMC9747113 (Clinical and Translational Science, 2022).
“Also recorded” adds a separate entry of the source.

Experiments:
[1] = Tolerability in fed and fasted states; assay type: in vivo; conditions: fed vs fasted
[2] = test system: BTK; conditions: 2 h after the first dose; cited from earlier work
[3] = test system: BTK; conditions: cited from earlier work
[4] = Population PK model of evobrutinib plasma concentration-time data
[5] = between-participant variability, variance estimate
[6] = final population PK model, oral tablet

C=CC(=O)N1CCC(CNc2ncnc(N)c2-c2ccc(Oc3ccccc3)cc2)CC1 [evobrutinib, Evobrutinib]
Tolerability in fed and fasted states [1]: equivalent | BTKO in peripheral blood [2]: high degree of BTKO | BTKO, median at trough ([3]; after 14 days of 25 mg q.d. while fasted): 88% | BTK occupancy at 96 h postdose ([3]; single doses ≥100 mg while fasted): > 50% | maximum BTK occupancy ([3]; within 4 h of single doses ≥200 mg while fasted): > 90% | BPV ALAG, Estimate (RSE %) [4, 5]: 0.156 (40.2) | BPV CL/F, Estimate (RSE %) [4, 5]: 0.0958 (23.0) | BPV D 1 Fasted, Estimate (RSE %) [4, 5]: 1.39 (47.2) | BPV D 1 Fed, Estimate (RSE %) [4, 5]: 1.39 (47.2) | BPV Q/F, Estimate (RSE %) [4, 5]: 1.17 (24.1) | BPV V2/F, Estimate (RSE %) [4, 5]: 0.627 (31.9) | BPV V3/F, Estimate (RSE %) [4, 5]: 1.86 (22.7) | Effect of ethnicity (Japanese vs non-Japanese) on PK parameters ([4]; covariate test): no difference; also recorded: not a significant covariate | ALAG (absorption lag time) [4, 6]: 0.235 h | CL/F (apparent clearance) [4, 6]: 273 L/h | K a (first-order absorption rate constant) [4, 6]: 0.784 h⁻¹ | V3/F (apparent peripheral volume of distribution) [4, 6]: 446 L | Vd/F ([4]; human, in vivo, po): 61.1 L | Increase of bioavailability with food compared with fasted ([4]; low-fat meal vs fasted): 49%
